Experimental findings from patent US10647713B2 (Nimbus Lakshmi, Inc., priority 2016, dated 2020) are described below.

The target of this assay is human TYK2 (JH2domain-pseudokinase) (Homo sapiens (Human), UniProt P29597). In words: TYK2 JH2 Domain Binding Assay (KINOMEscan, DiscoveRx). The settings on record: 11-point dilution, duplicate. In short, it runs like this: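 Kd from duplicate 11-point 3-fold dilutions starting at 30,000 nM, fitted by Hill equation with slope fixed at −1. Compounds (final 0.9% DMSO) displace DNA-tagged HEK293-expressed TYK2 JH2 fusion (<0.1 nM) from ligand-coated beads over 1 h at room temperature; eluted kinase read by qPCR.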
human TYK2 (JH2domain-pseudokinase), sequence (P29597 556-888): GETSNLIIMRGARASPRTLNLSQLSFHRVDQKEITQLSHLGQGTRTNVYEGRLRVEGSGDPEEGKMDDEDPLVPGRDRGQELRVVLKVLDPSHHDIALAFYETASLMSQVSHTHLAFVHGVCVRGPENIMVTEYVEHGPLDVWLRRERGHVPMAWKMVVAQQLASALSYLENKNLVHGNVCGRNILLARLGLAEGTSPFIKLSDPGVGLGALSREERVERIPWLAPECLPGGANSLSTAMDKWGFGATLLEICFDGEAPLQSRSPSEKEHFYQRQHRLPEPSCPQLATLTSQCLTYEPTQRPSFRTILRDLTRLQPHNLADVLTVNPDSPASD
One may read the Kd as the constant that tells how readily two partners part at equilibrium. As for `Cc1nc2c(Nc3ccc(-c4cncn4C)cc3S(C)(=O)=O)cc(NC(=O)[C@H]3C[C@H]3F)nc2[nH]1` [I-261, (1R,2R)-2-fluoro-N-(2-methyl-7-((4-(1-methyl-1H-imidazol-5-yl)-2-(methylsulfonyl)phenyl)amino)-3H-imidazo[4,5-b]pyridin-5-yl)cyclopropane-1-carboxamide], the Kd fell in the range of 100 to 500 pM. Compound `Cc1nc2c(Nc3ccc(-c4nn(C)cc4C)cc3S(C)(=O)=O)cc(NC(=O)[C@@H]3C[C@@H]3F)nc2[nH]1` [I-262, (1S,2S)—N-(7-((4-(1,4-dimethyl-1H-pyrazol-3-yl)-2-(methylsulfonyl)phenyl)amino)-2-methyl-3H-imidazo[4,5-b]pyridin-5-yl)-2-fluorocyclopropane-1-carboxamide] showed an equilibrium dissociation constant (Kd) of 100 to 500 pM.

Consider `Cc1nc2c(Nc3ccc(-c4nn(C)cc4C)cc3S(C)(=O)=O)cc(NC(=O)[C@H]3C[C@H]3F)nc2[nH]1` [I-263, (1R,2R)—N-(7-((4-(1,4-dimethyl-1H-pyrazol-3-yl)-2-(methylsulfonyl)phenyl)amino)-2-methyl-3H-imidazo[4,5-b]pyridin-5-yl)-2-fluorocyclopropane-1-carboxamide], for which the dissociation constant Kd was below 100 pM. To `Cc1nc2c(Nc3ccc(-c4cnn(C)c4C)cc3S(C)(=O)=O)cc(NC(=O)C3CC3)nc2[nH]1` [I-265, N-(7-((4-(1,5-dimethyl-1H-pyrazol-4-yl)-2-(methylsulfonyl)phenyl)amino)-2-methyl-3H-imidazo[4,5-b]pyridin-5-yl)cyclopropanecarboxamide] belongs below 100 pM. Next, `COc1c(Nc2cc(NC(=O)[C@@H]3C[C@@H]3F)nc3[nH]c(C)nc23)cccc1-c1ncn(C)n1` [I-266, (1S,2S)-2-fluoro-N-(7-((2-methoxy-3-(1-methyl-1H-1,2,4-triazol-3-yl)phenyl)amino)-2-methyl-3H-imidazo[4,5-b]pyridin-5-yl)cyclopropane-1-carboxamide]: 500 to 1000 pM; `COc1c(Nc2cc(NC(=O)[C@H]3C[C@H]3F)nc3[nH]c(C)nc23)cccc1-c1ncn(C)n1` [I-267, (1R,2R)-2-fluoro-N-(7-((2-methoxy-3-(1-methyl-1H-1,2,4-triazol-3-yl)phenyl)amino)-2-methyl-3H-imidazo[4,5-b]pyridin-5-yl)cyclopropane-1-carboxamide]: 1000 to 10000 pM; `Cc1nc2c(Nc3ccc(-c4cnn(C)c4)cc3N(C)S(C)(=O)=O)cc(NC(=O)[C@@H]3C[C@@H]3F)nc2[nH]1` [I-268, (1S,2S)-2-fluoro-N-(2-methyl-7-((4-(1-methyl-1H-pyrazol-4-yl)-2-(N-methylmethylsulfonamido)phenyl)amino)-3H-imidazo[4,5-b]pyridin-5-yl)cyclopropane-1-carboxamide]: 100 to 500 pM. To `Cc1nc2c(Nc3ccc(-c4cnn(C)c4)cc3N(C)S(C)(=O)=O)cc(NC(=O)[C@H]3C[C@H]3F)nc2[nH]1` [I-269, (1R,2R)-2-fluoro-N-(2-methyl-7-((4-(1-methyl-1H-pyrazol-4-yl)-2-(N-methylmethylsulfonamido)phenyl)amino)-3H-imidazo[4,5-b]pyridin-5-yl)cyclopropane-1-carboxamide] belongs 100 to 500 pM; to `CN(c1cc(-c2cncn2C)ccc1Nc1cc(NC(=O)[C@@H]2CC2(F)F)nc2[nH]c(C(F)F)nc12)S(C)(=O)=O` [I-270, (S)—N-(2-(difluoromethyl)-7-((4-(1-methyl-1H-imidazol-5-yl)-2-(N-methylmethylsulfonamido)phenyl)amino)-3H-imidazo[4,5-b]pyridin-5-yl)-2,2-difluorocyclopropane-1-carboxamide], 100 to 500 pM; to `CN(c1cc(-c2cncn2C)ccc1Nc1cc(NC(=O)[C@H]2CC2(F)F)nc2[nH]c(C(F)F)nc12)S(C)(=O)=O` [I-271, (R)—N-(2-(difluoromethyl)-7-((4-(1-methyl-1H-imidazol-5-yl)-2-(N-methylmethylsulfonamido)phenyl)amino)-3H-imidazo[4,5-b]pyridin-5-yl)-2,2-difluorocyclopropane-1-carboxamide], 1000 to 10000 pM. `CS(=O)(=O)c1cc(C2CC2)ccc1Nc1cc(Nc2cccc(C(F)(F)F)n2)nc2[nH]c(C(F)F)nc12` [I-272] returned a dissociation constant Kd of 1000 to 10000 pM. Next, `Cc1nc2c(Nc3ccc(C4CC4)cc3S(C)(=O)=O)cc(Nc3cccc(C(F)(F)F)n3)nc2[nH]1` [I-273]: 500 to 1000 pM; `Cc1nc2c(Nc3ccc(-c4cncn4C)cc3N(C)S(C)(=O)=O)cc(NC(=O)[C@@H]3CC3(F)F)nc2[nH]1` [I-274, (S)-2,2-difluoro-N-(2-methyl-7-((4-(1-methyl-1H-imidazol-5-yl)-2-(N-methylmethylsulfonamido)phenyl)amino)-3H-imidazo[4,5-b]pyridin-5-yl)cyclopropane-1-carboxamide]: 100 to 500 pM. Next, `Cc1nc2c(Nc3ccc(-c4cncn4C)cc3N(C)S(C)(=O)=O)cc(NC(=O)[C@H]3CC3(F)F)nc2[nH]1` [I-275, (R)-2,2-difluoro-N-(2-methyl-7-((4-(1-methyl-1H-imidazol-5-yl)-2-(N-methylmethylsulfonamido)phenyl)amino)-3H-imidazo[4,5-b]pyridin-5-yl)cyclopropane-1-carboxamide]: 1000 to 10000 pM.

For the compound `Cc1cc(-c2ccc(Nc3cc(Nc4cccc(C#N)n4)nc4[nH]c(C(F)F)nc34)c(S(C)(=O)=O)c2)nn1C` [I-277], the Kd lay within 100 to 500 pM. Next, `Cc1nc2c(Nc3ccc([C@@H]4CCCCO4)cc3S(C)(=O)=O)cc(NC(=O)[C@H]3CC3(F)F)nc2[nH]1` [I-278, (R)-2,2-difluoro-N-(2-methyl-7-((2-(methylsulfonyl)-4-((S)-tetrahydro-2H-pyran-2-yl)phenyl)amino)-3H-imidazo[4,5-b]pyridin-5-yl)cyclopropane-1-carboxamide]: 100 to 500 pM. Next, `Cc1nc2c(Nc3ccc([C@@H]4CCCCO4)cc3S(C)(=O)=O)cc(NC(=O)[C@@H]3CC3(F)F)nc2[nH]1` [I-279, (S)-2,2-difluoro-N-(2-methyl-7-((2-(methylsulfonyl)-4-((S)-tetrahydro-2H-pyran-2-yl)phenyl)amino)-3H-imidazo[4,5-b]pyridin-5-yl)cyclopropane-1-carboxamide]: 1000 to 10000 pM; `CS(=O)(=O)c1cc([C@H]2CCCCO2)ccc1Nc1cc(NC(=O)[C@H]2CC2(F)F)nc2[nH]c(C(F)F)nc12` [I-280, (R)—N-(2-(difluoromethyl)-7-((2-(methylsulfonyl)-4-((R)-tetrahydro-2H-pyran-2-yl)phenyl)amino)-3H-imidazo[4,5-b]pyridin-5-yl)-2,2-difluorocyclopropane-1-carboxamide]: 500 to 1000 pM. Next, `CS(=O)(=O)c1cc([C@H]2CCCCO2)ccc1Nc1cc(NC(=O)[C@@H]2CC2(F)F)nc2[nH]c(C(F)F)nc12` [I-281, (S)—N-(2-(difluoromethyl)-7-((2-(methylsulfonyl)-4-((R)-tetrahydro-2H-pyran-2-yl)phenyl)amino)-3H-imidazo[4,5-b]pyridin-5-yl)-2,2-difluorocyclopropane-1-carboxamide]: 1000 to 10000 pM; `Cc1nc2c(Nc3ccc(C4=NC(C)(C)CO4)cc3S(C)(=O)=O)cc(NC(=O)[C@@H]3C[C@@H]3F)nc2[nH]1` [I-282, (1S,2S)—N-(7-((4-(4,4-dimethyl-4,5-dihydrooxazol-2-yl)-2-(methylsulfonyl)phenyl)amino)-2-methyl-3H-imidazo[4,5-b]pyridin-5-yl)-2-fluorocyclopropane-1-carboxamide]: 1000 to 10000 pM. As for `CC1(C)CN=C(c2ccc(Nc3cc(NC(=O)C4CC4)nc4[nH]c(C(F)F)nc34)c(S(C)(=O)=O)c2)O1` [I-283, N-(2-(difluoromethyl)-7-((4-(5,5-dimethyl-4,5-dihydrooxazol-2-yl)-2-(methylsulfonyl)phenyl)amino)-3H-imidazo[4,5-b]pyridin-5-yl)cyclopropanecarboxamide], the Kd lay in the range of 1000 to 10000 pM. On to `Cc1nc2c(Nc3ccc(C4=NCC(C)(C)O4)cc3S(C)(=O)=O)cc(NC(=O)C3CC3)nc2[nH]1` [I-284, N-(7-((4-(5,5-dimethyl-4,5-dihydrooxazol-2-yl)-2-(methylsulfonyl)phenyl)amino)-2-methyl-3H-imidazo[4,5-b]pyridin-5-yl)cyclopropanecarboxamide], for which the Kd fell in the range of 500 to 1000 pM. To `CP(C)(=O)c1cc(C2CC2)ccc1Nc1cc(NC(=O)C2CC2)nc2[nH]c(C(F)F)nc12` [I-285, N-(7-((4-cyclopropyl-2-(dimethylphosphoryl)phenyl)amino)-2-(difluoromethyl)-3H-imidazo[4,5-b]pyridin-5-yl)cyclopropanecarboxamide] belongs 100 to 500 pM. To `Cc1nc2c(Nc3ccc(C4CC4)cc3P(C)(C)=O)cc(NC(=O)C3CC3)nc2[nH]1` [I-286, N-(7-((4-cyclopropyl-2-(dimethylphosphoryl)phenyl)amino)-2-methyl-3H-imidazo[4,5-b]pyridin-5-yl)cyclopropanecarboxamide] belongs 100 to 500 pM. In turn, `CS(=O)(=O)c1cc(-c2ccn(C3CC3)n2)ccc1Nc1cc(NC(=O)C2CC2)nc2[nH]c(C(F)F)nc12` [I-287, N-(7-((4-(1-cyclopropyl-1H-pyrazol-3-yl)-2-(methylsulfonyl)phenyl)amino)-2-(difluoromethyl)-3H-imidazo[4,5-b]pyridin-5-yl)cyclopropanecarboxamide] had a Kd of 100 to 500 pM. Regarding `Cc1csc(-c2ccc(Nc3cc(NC(=O)C4CC4)nc4[nH]c(C(F)F)nc34)c(S(C)(=O)=O)c2)n1` [I-288, N-(2-(difluoromethyl)-7-((2-(methylsulfonyl)-4-(4-methylthiazol-2-yl)phenyl)amino)-3H-imidazo[4,5-b]pyridin-5-yl)cyclopropanecarboxamide], the Kd fell in the range of 100 to 500 pM. Next, `Cc1csc(-c2ccc(Nc3cc(NC(=O)C4CC4)nc4[nH]c(C)nc34)c(S(C)(=O)=O)c2)n1` [I-289, N-(2-methyl-7-((2-(methylsulfonyl)-4-(4-methylthiazol-2-yl)phenyl)amino)-3H-imidazo[4,5-b]pyridin-5-yl)cyclopropanecarboxamide]: 100 to 500 pM.
